Molecular target: T1, CBL-B (Homo sapiens, UniProt Q13191)
T1 construct: GST
Experiment: CBL-B TR-FRET IC50 screening (E1/E2 ubiquitination, Biotin-Ubiquitin, Anti GST-Tb donor / Streptavidin-d2 acceptor)
Type: biochemical
Details: second part of Table 2 (head 'Patent Cmpd No / Updated Activity'); same CBL-B TR-FRET IC50 bins A-F; read-out: Updated Activity

T1 sequence (Q13191 whole entry): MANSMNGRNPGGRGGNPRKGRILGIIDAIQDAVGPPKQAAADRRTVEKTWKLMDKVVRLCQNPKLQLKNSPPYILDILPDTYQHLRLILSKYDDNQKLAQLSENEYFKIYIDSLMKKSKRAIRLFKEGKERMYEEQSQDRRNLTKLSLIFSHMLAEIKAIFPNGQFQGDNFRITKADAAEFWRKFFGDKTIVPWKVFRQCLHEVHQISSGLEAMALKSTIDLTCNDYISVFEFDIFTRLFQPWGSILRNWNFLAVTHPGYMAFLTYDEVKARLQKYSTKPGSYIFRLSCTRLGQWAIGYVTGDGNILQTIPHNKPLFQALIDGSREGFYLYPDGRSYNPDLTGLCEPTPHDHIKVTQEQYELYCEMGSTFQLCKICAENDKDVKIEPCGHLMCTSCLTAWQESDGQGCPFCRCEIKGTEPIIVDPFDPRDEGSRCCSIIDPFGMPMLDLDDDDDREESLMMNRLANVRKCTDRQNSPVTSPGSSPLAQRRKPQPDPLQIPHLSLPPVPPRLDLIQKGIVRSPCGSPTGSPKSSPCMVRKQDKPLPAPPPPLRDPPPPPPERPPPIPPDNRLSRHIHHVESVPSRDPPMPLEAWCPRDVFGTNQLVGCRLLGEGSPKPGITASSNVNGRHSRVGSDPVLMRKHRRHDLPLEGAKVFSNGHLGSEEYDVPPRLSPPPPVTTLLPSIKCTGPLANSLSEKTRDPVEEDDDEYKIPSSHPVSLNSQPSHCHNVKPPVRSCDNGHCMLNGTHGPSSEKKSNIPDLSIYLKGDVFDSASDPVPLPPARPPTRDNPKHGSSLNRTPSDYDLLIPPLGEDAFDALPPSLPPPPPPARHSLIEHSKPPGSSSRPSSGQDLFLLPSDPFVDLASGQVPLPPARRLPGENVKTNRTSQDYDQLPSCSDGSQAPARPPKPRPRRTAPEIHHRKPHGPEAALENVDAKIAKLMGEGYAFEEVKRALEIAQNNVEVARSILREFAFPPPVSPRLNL

Row | SMILES | IC50 [µM]
1 | Cn1cnnc1[C@H](c1cc(C#N)cc(-n2cc3c(C(F)(F)F)cc(CN4CCC5(CC5)C4)cn3c2=O)c1)C1CCC1 (single isomer, unassigned) [Compound 497] | < 0.1
2 | C[C@H](c1cc(C(F)(F)F)c2cn(-c3cccc([C@H](c4nncn4C)C4CCC4)c3)c(=O)n2c1)N1CC[C@@H](F)C1 (single isomer, unassigned) [Compound 500] | < 0.1
3 | C[C@@H](c1cc(C(F)(F)F)c2cn(-c3cccc([C@H](c4nncn4C)C4CCC4)c3)c(=O)n2c1)N1CC[C@@H](F)C1 (single isomer, unassigned) [Compound 501] | < 0.1
4 | Cn1cnnc1[C@@H](c1cc(C#N)cc(-n2cc3c(C(F)(F)F)cc(CN4CCC(C)(F)CC4)cn3c2=O)c1)C1CCC1 (single isomer, unassigned) [Compound 508] | < 0.1
5 | C[C@@H]1CN(Cc2cc(C(F)(F)F)c3cn(-c4cc(C#N)cc([C@H](c5nncn5C)C5CCC5)c4)c(=O)n3c2)CCO1 (single isomer, unassigned) [Compound 509] | < 0.1
6 | Cn1cnnc1[C@@H](c1cc(F)cc(-n2cc3c(C(F)(F)F)cc(CN4CCC5(CC5)C4)cn3c2=O)c1)C1CCC1 (single isomer, unassigned) [Compound 510] | 0.301 to 1
7 | C[C@@H]1CN(Cc2cc(C(F)(F)F)c3cn(-c4cc(F)cc([C@H](c5nncn5C)C5CCC5)c4)c(=O)n3c2)CCO1 (single isomer, unassigned) [Compound 511] | > 10
8 | CC(=O)N(C)Cc1cc([C@@H](c2nncn2C)C2CCC2)cc(-n2cc3c(C(F)(F)F)cccn3c2=O)c1 (single isomer, unassigned) [Compound 512] | > 10
9 | CC(=O)N(C)Cc1cc([C@H](c2nncn2C)C2CCC2)cc(-n2cc3c(C(F)(F)F)cccn3c2=O)c1 (single isomer, unassigned) [Compound 513] | > 10
10 | Cn1cnnc1[C@H](c1cc(F)cc(-n2cc3c(C(F)(F)F)cc(CN4CCC5(CC5)C4)cn3c2=O)c1)C1CCC1 (single isomer, unassigned) [Compound 514] | < 0.1
11 | C[C@@H]1CN(Cc2cc(C(F)(F)F)c3cn(-c4cc(F)cc([C@@H](c5nncn5C)C5CCC5)c4)c(=O)n3c2)CCO1 (single isomer, unassigned) [Compound 515] | > 10
12 | Cn1cnnc1[C@H](c1cc(C#N)cc(-n2cc3c(C(F)(F)F)cc(CN4CCC(C)(F)CC4)cn3c2=O)c1)C1CCC1 (single isomer, unassigned) [Compound 516] | > 10
13 | C[C@@H]1CN(Cc2cc(C(F)(F)F)c3cn(-c4cc(C#N)cc([C@@H](c5nncn5C)C5CCC5)c4)c(=O)n3c2)CCO1 (single isomer, unassigned) [Compound 517] | > 10
14 | COCCO[C@H]1CCCN(Cc2cc(C(F)(F)F)c3cn(-c4cccc([C@H](c5nncn5C)C5CCC5)c4)c(=O)n3c2)C1 (single isomer, unassigned) [Compound 518] | < 0.1
15 | COCCO[C@@H]1CCCN(Cc2cc(C(F)(F)F)c3cn(-c4cccc([C@H](c5nncn5C)C5CCC5)c4)c(=O)n3c2)C1 (single isomer, unassigned) [Compound 519] | < 0.1
16 | CO[C@]1(C)C[C@H]([C@H](c2cccc(-n3cc4c(C(F)(F)F)cc(CN5CCC[C@H](C)C5)cn4c3=O)c2)c2nncn2C)C1 (single isomer, unassigned) [Compound 529] | > 10
17 | CO[C@]1(C)C[C@H]([C@@H](c2cccc(-n3cc4c(C(F)(F)F)cc(CN5CCC[C@H](C)C5)cn4c3=O)c2)c2nncn2C)C1 (single isomer, unassigned) [Compound 530] | > 10
18 | Cn1cnnc1[C@H](c1cc(-c2nnnn2C)cc(-n2cc3c(C(F)(F)F)cccn3c2=O)c1)C1CCC1 (single isomer, unassigned) [Compound 531] | 0.301 to 1

Row | SMILES | IC50 [µM]
19 | Cn1cnnc1[C@@H](c1cc(-c2nnnn2C)cc(-n2cc3c(C(F)(F)F)cccn3c2=O)c1)C1CCC1 (single isomer, unassigned) [Compound 532] | > 10
20 | Cn1cnnc1[C@@H](c1cc(F)cc(-n2cc3c(C(F)(F)F)cc(CN4CC5(CC5)C4)cn3c2=O)c1)C1CCC1 (single isomer, unassigned) [Compound 533] | 1 to 3
21 | Cn1cnnc1[C@@H](c1cc(F)cc(-n2cc3c(C(F)(F)F)cc(CN4CCC(C)(F)CC4)cn3c2=O)c1)C1CCC1 (single isomer, unassigned) [Compound 534] | < 0.1
22 | CNC(=O)Cc1cc([C@@H](c2nncn2C)C2CCC2)cc(-n2cc3c(C(F)(F)F)cccn3c2=O)c1 (single isomer, unassigned) [Compound 537] | > 10
23 | CNC(=O)Cc1cc([C@H](c2nncn2C)C2CCC2)cc(-n2cc3c(C(F)(F)F)cccn3c2=O)c1 (single isomer, unassigned) [Compound 538] | > 10
24 | Cn1cnnc1[C@H](c1cc(F)cc(-n2cc3c(C(F)(F)F)cc(CN4CC5(CC5)C4)cn3c2=O)c1)C1CCC1 (single isomer, unassigned) [Compound 539] | < 0.1
25 | Cn1cnnc1[C@H](c1cc(F)cc(-n2cc3c(C(F)(F)F)cc(CN4CCC(C)(F)CC4)cn3c2=O)c1)C1CCC1 (single isomer, unassigned) [Compound 540] | 0.301 to 1
26 | CO[C@H]1C[C@@H]([C@@H](c2cccc(-n3cc4c(C(F)(F)F)cc(CN5CCC[C@H](C)C5)cn4c3=O)c2)c2nncn2C)C1 (single isomer, unassigned) [Compound 551] | 0.301 to 1
27 | CO[C@H]1C[C@H]([C@H](c2cccc(-n3cc4c(C(F)(F)F)cc(CN5CCC[C@H](C)C5)cn4c3=O)c2)c2nncn2C)C1 (single isomer, unassigned) [Compound 552] | 0.301 to 1
28 | CO[C@H]1C[C@H]([C@@H](c2cccc(-n3cc4c(C(F)(F)F)cc(CN5CCC[C@H](C)C5)cn4c3=O)c2)c2nncn2C)C1 (single isomer, unassigned) [Compound 553] | < 0.1
29 | CO[C@H]1C[C@@H]([C@H](c2cccc(-n3cc4c(C(F)(F)F)cc(CN5CCC[C@H](C)C5)cn4c3=O)c2)c2nncn2C)C1 (single isomer, unassigned) [Compound 554] | < 0.1
30 | C[C@H]1CCCN(Cc2cc(C(F)(F)F)c3cn(-c4cc(C#N)cc([C@H](c5nncn5C)C5COC5)c4)c(=O)n3c2)C1 (single isomer, unassigned) [Compound 555] | > 10
31 | C[C@H]1CCCN(Cc2cc(C(F)(F)F)c3cn(-c4cc(C#N)cc([C@@H](c5nncn5C)C5COC5)c4)c(=O)n3c2)C1 (single isomer, unassigned) [Compound 556] | < 0.1
32 | Cn1cnnc1[C@@H](c1cc(C#N)cc(-n2cc3c(C(F)(F)F)cc(CN4CC5(CC5)C4)cn3c2=O)c1)C1CCC1 (single isomer, unassigned) [Compound 557] | > 10
33 | CNC(=O)CCc1cc([C@@H](c2nncn2C)C2CCC2)cc(-n2cc3c(C(F)(F)F)cccn3c2=O)c1 (single isomer, unassigned) [Compound 558] | > 10
34 | CNC(=O)CCc1cc([C@H](c2nncn2C)C2CCC2)cc(-n2cc3c(C(F)(F)F)cccn3c2=O)c1 (single isomer, unassigned) [Compound 559] | > 10
35 | Cn1cnnc1[C@H](c1cc(C#N)cc(-n2cc3c(C(F)(F)F)cc(CN4CC5(CC5)C4)cn3c2=O)c1)C1CCC1 (single isomer, unassigned) [Compound 560] | < 0.1
